What was measured:
[1] = test system: hyaluronidase Type IV-S, from bovine testes (Hyase); test: Dische's assay (Method II) of HA degradation by Hyase with inhibitors; assay type: biochemical; conditions: for % HA degraded: 20 μL inhibitor stock incubated 2 h with 20 μL Hyase, then HA 200 μL; for % HA degraded / % HA intact (precipitated): room temperature 24 h; for % of inhibition of HA degradation: derived from Table 1; for % HA intact (precipitated): represents % of Hyase inhibition, 20 μL inhibitor, 20 μL Hyase, HA 200 μL
Method: Method II (Dische's assay; detection of uronic acid residues): Assays were performed by following the procedures described in Dische Z. [J. Biol. Chem., 1947, 167, p. 189-198] and Dische and Rothschild [Anal Biochem., 1967, 21(1), p. 125-30]. In these assays, molecules containing the uronic acid residues found in the precipitate formed upon CPC additions, are re-solubilized and products formed by -sulfuric acid hydrolysis of these fragments are detected by a spectrophotometric assay employing carbazole chromagen reagent. In addition, small residues degraded off the HA chains that have not precipitated with the addition of CPC, can be detected by the carbazole assay performed on the solution, so as to detect all of the uronic acid content.
Evaluation of HA degradation by this method was generally performed as follows:
20 μL of a NAC stock solution, and 20 μL of the stock solutions of the other inhibitors were used in the assay.
200 μL of the HA stock solution were placed in each tube, for achieving a 1 mg HA per tube.
Twenty (20) μL of hyase and 20 μL of NAC were combined and incubated for 2 hours. Then 200 μL of HA (1 mg) were added to each tube and the mixture was incubated at room temperature for 24 hours. Thereafter, the tubes were heated for 2 minutes in boiling water bath and 8 mL of doubled distilled water were added to the tubes as preparation for the Dische's assay.
As per Dische's Assay, 100 μL of 3N NaCl and 0.5 mL of 10% CPC (cetylpyridinium chloride) were thereafter added to each tube and the mixture was incubated at 37° C. until flocculation-turbidity (resulting from precipitation of HA+CPC) could be observed. The mixture was centrifuged for 10 minutes at 10,000 g at room temperature, and the supernatant was thereafter separated from the obtained pellet.
The pellet was dissolved in 1 ml of CaCl2, and the obtained solution was incubated at 37° C. until complete dissolution of the pellet is obtained. A 2:1 v/v ethanol/ether mixture (8 ml) was thereafter added, and the mixture was intensively stirred (by vortex) and kept at −20° C. overnight. The obtained pellet was collected following a centrifugation for 10 minutes at 10,000 g. Then, distilled water (1 mL) was added to solubilize the pellet, followed by addition of 0.2 ml Carbazole 1%. The mixture was stirred thoroughly, and concentrated sulfuric acid (6 mL) was thereafter added.
The samples were transferred into tight closed tubes, placed for 10 minutes in a boiling water bath, and was thereafter cooled in ice until it reached room temperature.
The pink-violet color developed by the chromogen was measured using a spectrophotometer at 527 nm.
Ditch assay, as described hereinabove (Method II) was performed while using the following Hyase inhibitors:
The experiment was run at room temperature (23° C.). Hyase and Inhibitors were incubated first for 2 hours prior to the addition of HA. Blank tubes included no substrate (HA) and Control tubes included no enzyme, no inhibitor and HA (200 μL). Tubes 5 and 6 contained HA and Hyase with no inhibitor. Standard Solutions with no enzyme and no inhibitor and HA 50 μL and 10 μL were also tested, for calibration. % HA cleaved denotes the weight percent of HA that was degraded. % HA residue denotes the weight percent of non-degraded HA, and represents the % of Hyase inhibition.

[2] = HA gelation consistency (Method III) with inhibitors, no Hyase; assay type: physicochemical; conditions: for Consistency: Table 8: HA 1% 2cc + 20 μL inhibitor stock
Method: Method III (Viscosity of HA): HA at low concentrations (e.g., 1%) in aqueous solution forms a viscous colloidal hydrogel solution, which yields semi-solid gel particles at room temperature and a solid gel at 4° C.
HA degradation was evaluated using Method III, as described hereinabove.
HA Gelation in the presence of Hyase Inhibitors, without Hyase was studied while using the following Stock solutions:
To each tube containing 2 mL of 1% HA one of the following inhibitors: SCG, Tranilast, and Glutathione (100 μL of each), and NAC (50 μL) was added. […] No Hyase was present.
Using the same protocols as above, HA degradation was tested following incubation of HA (2 ml of a 1% Stock solution) and a Hyase inhibitor (20 μL of a stock solution as described hereinabove), at 37° C., in the presence and absence of Hyase.

[3] = TMA malodor neutralization by myrac aldehyde, evaluated by smelling
Method: The experimental system for following the neutralization of an exemplary malodorous compound trimethylamine (TMA) by an exemplary malodor neutralizing agent aldehyde myrac aldehyde, was based on assaying the CHO functional group using the Park-Johnson method [Park, J. T. and Johnson, M. J., J. Biol. Chem., 1949, 181, p. 149]. TMA levels were analyzed using Siemens Multistix 10 SG reagent strips.
Determination of the concentration of myrac aldehyde needed to neutralize TMA malodor was evaluated by smelling 2 ml samples of an aqueous solution containing 2 mM TMA (4 micromole of TMA in 2 ml of water). […]

SMILES | % HA degraded [1] | % of inhibition of HA degradation [1] | % HA intact (precipitated) [1] | HA gel consistency ([2]; 2 mL 1% HA + inhibitor stock (100 μL; NAC 50 μL), 37° C. 24 hours) | Consistency ([2]; at 4° C.) | Consistency ([2]; at 37° C.) | concentration from which the scent of myrac aldehyde is perceived and masks the smell of TMA ([3]; 2 mM TMA in water) | concentration of myrac aldehyde that can neutralize the smell of TMA ([3]; 2 mM TMA in water) | Perceived scent ([3]; Sample 1: 2 μl aldehyde in 2 ml TMA 2 mM solution, 0.1 percent aldehyde) | Perceived scent ([3]; Sample 2: 10 μl aldehyde in 2 ml TMA 2 mM solution, 0.5 percent aldehyde) | Perceived scent ([3]; Sample 3: 20 μl aldehyde in 2 ml TMA 2 mM solution, 1 percent aldehyde) | Perceived scent ([3]; Sample 4: 40 μl aldehyde in 2 ml TMA 2 mM solution, 2 percent aldehyde) | Perceived scent ([3]; Sample 5: 80 μl aldehyde in 2 ml TMA 2 mM solution, 4 percent aldehyde) | Perceived scent ([3]; Sample 6: 100 μl aldehyde in 2 ml TMA 2 mM solution, 5 percent aldehyde) | Perceived scent ([3]; Sample 7: 200 μl aldehyde in 2 ml TMA 2 mM solution, 10 percent aldehyde) | Perceived scent ([3]; Sample 8: 300 μl aldehyde in 2 ml TMA 2 mM solution, 15 percent aldehyde) | Perceived scent ([3]; Sample 9: 400 μl aldehyde in 2 ml TMA 2 mM solution, 20 percent aldehyde)
N[C@@H](CCC(=O)N[C@@H](CS)C(=O)NCC(=O)O)C(=O)O [Glutathione, Reduced Glutathione] | 82% | 18% | 18% | viscous liquid | Solid (for a solid the results were in the range of 80-100 Pa S and higher) | Viscous liquid (for a viscous liquid in the range of 1-10 Pa S) |  |  |  |  |  |  |  |  |  |  | 
CC(C)=CCCC1=CCC(C=O)CC1 (stereo not shown) [myrac aldehyde, 4-(4-methylpent-3-enyl)cyclohex-3-ene-1-carbaldehyde] |  |  |  |  |  |  | ≥ 4% | about 2% | Strong fishy | fishy | Faint fishy | No scent | Faint myrac | Myrac | Myrac | Strong Myrac | Strong myrac
O=C(O)c1cc(=O)c2c(OCC(O)COc3cccc4oc(C(=O)O)cc(=O)c34)cccc2o1 [Cromoglycate, sodium Cromoglycate] | 96.7% | 3.3% | 3.3% |  | Solid (for a solid the results were in the range of 80-100 Pa S and higher) | Semisolid (for a semi-solid in the range of 50-70 Pa S) |  |  |  |  |  |  |  |  |  |  | 

Reference: patent US10004761B2, “Malodor neutralizing composition” (priority 2016, dated 2018)
